Values joined by “and” are separate entries in the source; they are usually repeats but may differ in a detail not shown here. Identical values can stand only once.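 Values below derive from 48-hour exposures of cells grown in 96-well plates, with endpoints linearly interpolated between the two concentrations bracketing the appropriate inhibition level. GI50: concentration for 50% inhibition of growth. The concentration for full growth arrest is given as TGI.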
Tests used:
Experiment in all cases: inhibition of tumour cell growth, NCI panel, 48 h
[1] = test system: CAKI-1 renal
[2] = test system: K-562 leukemia
[3] = test system: NCI-H460 lung
[4] = test system: OVCAR-3 ovarian
[5] = test system: RPMI-8226 leukemia
[6] = test system: RXF 393 renal
[7] = test system: SK-MEL-2 melanoma
[8] = test system: SR leukemia
[9] = test system: U251 CNS
[10] = test system: UACC-62 melanoma

SMILES	GI50 [1]	TGI [1]	GI50 [2] [µM]	TGI [2]	GI50 [3]	TGI [3]	GI50 [4]	TGI [4]	GI50 [5]	TGI [5]	GI50 [6] [µM]	TGI [6]	GI50 [7] [µM]	TGI [7]	GI50 [8] [µM]	TGI [8]	GI50 [9]	TGI [9]	GI50 [10]	TGI [10]
CC(O)c1cccc(NCc2c3ccccc3c(=O)n3c2oc2ccccc23)c1 (configuration not stated)	7.29 µM	> 100 µM	> 100	> 100 µM	> 100 µM	> 100 µM	9.25 µM	85.2 µM	65 µM	> 100 µM	22.5	67.8 µM	6.31	46.9 µM	3.39	12.1 µM	9.92 µM	21.5 µM	5.45 µM	22.3 µM
O=Cc1ccc(-c2cc(C=O)c(-c3cccs3)[nH]2)s1	53.5 µM	58.3 µM and > 100 µM	77.5	75 µM and > 100 µM	48.2 µM	75 µM and > 100 µM	52 µM	53.7 µM and > 100 µM	79.1 µM	75 µM and > 100 µM	23.3	75 µM and > 100 µM	> 100	75 µM and > 100 µM	31.6	72.7 µM and > 100 µM	> 100 µM	62.9 µM and > 100 µM	46 µM	75 µM and > 100 µM
O=C1Nc2ccc(C(=O)c3ccco3)cc2/C1=C/c1cc(Cl)c(O)c(Cl)c1	1.72 µM	> 20.9 µM	9.05	> 25 µM	4.23 µM	> 22.8 µM	4.32 µM	10.6 µM	4.02 µM	12.5 µM	2.77	15.5 µM	2.86	7.21 µM	3.03	18.8 µM	3.95 µM	> 25 µM	2.63 µM	7.91 µM
Cc1cc(I)cc(CN(C)CCCN2CCSCC2)c1O	20 µM	40.7 µM	14.2	32.6 µM	17.8 µM	40.2 µM	29.7 µM	> 100 µM	18.8 µM	44.4 µM	17.2	39 µM	19.2	39.9 µM	10.6	25.3 µM	33.9 µM	95.6 µM	32 µM	> 100 µM
CC12OC(c3ccccc3)=CC(c3ccc(Cl)cc3)=C1C(c1ccccc1)=CC2=O (configuration not stated)	> 100 µM	> 100 µM	28.9	> 100 µM	34.8 µM	> 100 µM	80 µM	> 100 µM	17.3 µM	47.2 µM	19.1	> 100 µM	> 100	> 100 µM	19.1	67 µM	33.1 µM	> 100 µM	49.4 µM	> 100 µM
COC(=O)CCc1cc(OC)c2c(c1)C(C(=O)OC)C(c1ccc(OC)c(OC)c1)O2 (configuration not stated)	> 100 µM and 45.5 µM	> 100 µM		> 100 µM	> 100 µM and 46.4 µM	> 100 µM	> 100 µM and 13.9 µM	> 100 µM	> 100 µM and 22.3 µM	> 100 µM		> 100 µM		> 100 µM		> 100 µM	> 100 µM and 13.3 µM	> 100 µM	> 100 µM and 16.7 µM	> 100 µM
CN[C@@H](C)C(=O)N[C@H](C(=O)N1CCC[C@H]1C(=O)N[C@H]1c2ccccc2C[C@H]1OCC#CC#CCO[C@@H]1Cc2ccccc2[C@@H]1NC(=O)[C@@H]1CCCN1C(=O)[C@@H](NC(=O)[C@H](C)NC)C1CCCCC1)C1CCCCC1	> 68.2 µM	> 100 µM	2	4.66 µM	2.66 µM	6.77 µM	2.63 µM	11.9 µM	1.44 µM	3.9 µM	< 0.0371		1.18	3.02 µM	0.456	3.16 µM	1.94 µM	4.79 µM	4.57 µM	9.97 µM
CCN(CC)CCCC(C)Nc1c2ccc(Cl)cc2nc2ccc(OC)cc12 (configuration not stated)	1.99 µM	4.37 µM and 4.5 µM		4.16 µM	1.3 µM	3.21 µM and 2.4 µM		6.89 µM and 9.8 µM		5.74 µM and 5.11 µM		2.53 µM		3.17 µM	1.86	6 µM and 5.02 µM	1.89 µM	4.1 µM and 3.39 µM		3.29 µM and 3.4 µM
CC(C)c1ccc(C(=O)Nc2nc3ccc(O)cc3s2)cc1	0.845 µM	> 100 µM	0.298	28.6 µM	0.47 µM	10.9 µM	1.36 µM	51.4 µM	2.74 µM	> 100 µM	2.6	13.9 µM	18	> 100 µM	0.715	68.7 µM	9.32 µM	> 100 µM	0.124 µM	> 100 µM
CSc1ccc(C2=NN(C(=O)c3ccc(F)cc3)C(c3ccc(F)cc3)C2)cc1 (configuration not stated)	16.6 µM	37.5 µM	3.91	16.6 µM	13 µM	28.7 µM	10.3 µM	22.5 µM	1.68 µM	4.2 µM	4.8	20 µM	18.8	34.6 µM	1.71	5.95 µM	4.54 µM	15.5 µM	11.7 µM	24.5 µM
COc1cc(C(=O)/C(C)=C/c2c[nH]c3ccccc23)cc(OC)c1OC	0.00421 µM	> 100 µM	0.00346	> 100 µM	0.00369 µM	> 100 µM	0.00334 µM	0.0107 µM	0.00482 µM	4.55 µM	1.81	> 100 µM	0.0123	15.2 µM	0.00333		0.00436 µM	10.6 µM		14.1 µM
Cc1ccccc1NC(=O)N/C(N)=N/c1nc(-c2cccc([N+](=O)[O-])c2)cs1	1.16 µM	3.16 µM	0.555	> 100 µM	3.18 µM	23.1 µM	1.72 µM	4.41 µM	3.09 µM	> 100 µM	1.78	4.33 µM	3.21	17.3 µM	0.594	> 100 µM	2.76 µM	10.5 µM	2.14 µM	12.8 µM
